The results in this text go back to patent US12403117B2, “Stable pharmaceutical composition containing non-steroidal anti-inflammatory drug derivative” (ZHEJIANG YUEJIA PHARMACEUTICALS CO., LTD, priority 2017, dated 2025).

Several values for one entry are separate records, joined by “and”; a condition that tells them apart may be missing. Equal entries are not always repeated.

What all share (type): physicochemical
Data set [1] is described as follows: Repose angle by injection method. The source says: The “repose angle” formed by stacking the powders or particles reflects its fluidity. The term “repose angle” generally refers to the maximum angle formed by the free slope of the layer of the stacked powders or particles and the horizontal plane. The smaller the repose angle, the smaller the friction between the powders or particles, and the better the fluidity. Better fluidity is more convenient for dissolution and use of the powders or particles. Methods for measuring the repose angle are well known to those skilled in the art. The repose angle is measured by an “injection method” in the examples of the invention, that is, the particles flow out of the funnel and fall on the plane to form a cone, and the base angle is the repose angle.

The next data set is described as follows: Dissociation constant. From the text:
(§1) The physical and chemical properties of the synthesized crystals of 2-(diethylamino)-ethyl-2-acetoxybenzoate hydrochloride are shown in Table 1.

A short description of data set [2]: Solubility (physical and chemical properties, Table 1).
From the text: as §1

Data set [3] can be described thus: Stability of aqueous solution of 2-(diethylamino)-ethyl-2-acetoxybenzoate hydrochloride at 2-8° C. (HPLC). The note with it: 5 g in 50 mL sterile water. The procedure: 5 g of 2-(diethylamino)-ethyl-2-acetoxybenzoate hydrochloride prepared in Example 1 was dissolved in 50 mL of sterile water and placed at 2-8° C. Samples were taken on day 0, month 0.5, month 1, month 2 and month 3 to detect the contents of the main drug and specific impurities (salicylic acid-(2-diethylaminoethyl ester) hydrochloride, acetylsalicylic acid, salicylic acid) and related substances, wherein the content of the main drug and specific impurities were detected by high-performance liquid chromatography (external standard method), and the related substances were detected by high-performance liquid chromatography (principal component self-control method without correction factors). The conditions of HPLC were as follows: • Column: Inertsil ODS-3 (250×4.6 mm, 5 μm) or equivalent • Flow rate: 1.0 ml/min • Column temperature: 33° C. • Wavelength: 276 nm, 303 nm • Injection volume: 10 μl • Mobile phase: water (15 ml of triethylamine+3.5 ml of 10% tetrabutylammonium hydroxide, adding water to 1000 ml): methanol: glacial acetic acid (63:27:10).

Data set [4] in a line: Acidity: pH value of the aqueous solution. Conditions: 25 ± 0.5° C.
Data set [5] in a line: Stability of aqueous solution of 2-(diethylamino)-ethyl-2-(4-isobutylphenyl) propionate hydrochloride at 25° C.±2° C. (HPLC). The note with it: 10 g in 50 mL sterile water. The protocol:
10 g of 2-(diethylamino)-ethyl-2-(4-isobutylphenyl) propionate hydrochloride prepared in Example 5 was dissolved in 50 mL of sterile water and placed at 25° C.±2° C. Samples were taken on day 0, week 1, week 2, week 3 and week 4 to detect the contents of the main drug and specific impurities (ibuprofen), wherein the content of the main drug and specific impurities were detected by high-performance liquid chromatography (area normalization). The conditions of HPLC were as follows: • Column: Inertsil ODS-3 (250×4.6 mm, 5 μm) or equivalent • Flow rate: 1.0 ml/min • Column temperature: 33° C. • Wavelength: 264 nm • Injection volume: 10 μl • Mobile phase: (3.065 g sodium acetate+150 ml acetic acid+375 ml water): acetonitrile (35:65).

In data set [1], `CCN(CC)CCOC(=O)c1ccccc1OC(C)=O.Cl` [2-(diethylamino)-ethyl-2-acetoxybenzoate hydrochloride] showed a Repose angle of 42°. In “Dissociation constant”, this molecule returned a Dissociation constant of 8.82. The Solubility entry is reported as “slightly soluble” in data set [2] (in acetone); “insoluble” in data set [2] (in ethyl acetate and ether); “extremely soluble” in data set [2] (in water). The “Main Drug” value in data set [3] (month 0) is 99.48%; in data set [3] (month 0.5), 99.32%; in data set [3] (month 1) it was 97.59%; in data set [3] (month 2) it was 94.86%; in data set [3] (month 3, hydrochloride) it was 86% and 86.55%. Moreover, the “Salicylic acid (impurity)” value turned out to be 0.0028% in data set [3] (month 0); 0.0035% in data set [3] (month 0.5); 0.0044% in data set [3] (month 1); 0.012% in data set [3] (month 2); 0.049% in data set [3] (month 3). Further, the “Salicylic acid-(2-diethylaminoethyl ester) hydrochloride (impurity)” value is listed as 0.51% in data set [3] (month 0), 0.67% in data set [3] (month 0.5), 2.38% in data set [3] (month 1) and 5.09% in data set [3] (month 2). Moreover, the “Acetylsalicylic acid (impurity)” value in data set [3] (month 1) worked out at 0.018%; in data set [3] (month 2) it was 0.033%; in data set [3] (month 3), 0.042%. Further, the “Acidity: pH value of the 2% aqueous solution” value in data set [4] was “product at 25 ± 0.5 °C is 4.0-6.0”.

In data set [1], `CCN(CC)CCOC(=O)C(C)c1ccc(CC(C)C)cc1.Cl` (stereo not shown) [2-(diethylamino)-ethyl-2-(4-isobutylphenyl) propionate hydrochloride] showed a Repose angle of 40 °. In addition, the “Ibuprofen (impurity)” value is “Not detected” in data set [5] (week 0), 0.39% in data set [5] (week 1), 1.69% in data set [5] (week 2) and 4.04% in data set [5] (week 3). Further, the Main Drug in data set [5] (week 0) turned out to be 100.00%; in data set [5] (week 1), 99.51%; in data set [5] (week 2), 98.12%; in data set [5] (week 3), 95.83%. The Unknown peak result is recorded as “Not detected” in data set [5] (week 0); 0.10% in data set [5] (week 1); 0.19% in data set [5] (week 2); 0.13% in data set [5] (week 3); 0.21% in data set [5] (week 4).
